Drawing on patent US11028051B2, “Tetrahydroquinoline-based bromodomain inhibitors” (St. Jude Children's Research Hospital, priority 2016, dated 2021), this text covers EC50 and 2.1/2.2 for 26 molecules.

Assay in all cases: competitive TR-FRET assay, BET-BD with acetylated peptide ligand
What all share (assay type): binding

For one assay, the target named is BRDT (Homo sapiens, UniProt Q58F21). The conditions noted are these: BRDT; Table 11 additional modifications; read-out: BRDT EC50. The procedure: (§1) Inhibitor potency was determined using a competitive TR-FRET assay as detailed herein, measuring interaction of the respective BET-BD with an acetylated peptide ligand (Table 2).
In another assay the target is BRD2-BD1 (Homo sapiens (Human), UniProt P25440). The conditions noted are these: BRD2-BD1; Table 11 additional modifications; read-out: 2.1 EC50. The procedure: as §1
BRD2-BD1, sequence (P25440 74-180): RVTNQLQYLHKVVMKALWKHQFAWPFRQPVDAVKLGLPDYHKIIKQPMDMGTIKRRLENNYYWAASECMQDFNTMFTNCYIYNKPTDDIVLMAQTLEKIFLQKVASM
Another assay addresses BRD2-BD2 (Homo sapiens (Human), UniProt P25440). As to conditions: for EC50: BRD2-BD2, Table 11 additional modifications, read-out: 2.2 EC50; for 2.1/2.2: ratio of BRD2-BD1 EC50 to BRD2-BD2 EC50 (selectivity). The procedure:
as §1

In a further assay the target is BRD3-BD1 (Homo sapiens (Human), UniProt Q15059). The conditions noted are these: BRD3-BD1; Table 11 additional modifications; read-out: 3.1 EC50. How it is done: as §1
BRD3-BD1, sequence (Q15059 34-140): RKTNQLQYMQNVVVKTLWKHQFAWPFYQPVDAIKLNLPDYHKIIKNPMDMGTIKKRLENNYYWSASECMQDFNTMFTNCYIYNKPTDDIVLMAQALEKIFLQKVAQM
The target of another assay is BRD4-BD1 (Homo sapiens (Human), UniProt O60885). As to conditions: BRD4-BD1; Table 11 additional modifications; read-out: 4.1 EC50. The procedure: as §1

BRD2-BD2, sequence (P25440 344-453): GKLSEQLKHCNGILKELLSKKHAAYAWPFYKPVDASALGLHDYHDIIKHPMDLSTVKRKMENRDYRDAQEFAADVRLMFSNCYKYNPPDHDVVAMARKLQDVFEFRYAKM

Regarding `CC(=O)N1c2ccc(-c3cccc(NCC(C)C)c3)cc2[C@H](NC(=O)OC(C)C)C[C@@H]1C` [compound 96], the EC50 was 6.2 µM on BRDT; 2.6 µM on BRD2-BD1; 0.79 µM at BRD2-BD2; 0.83 µM at BRD3-BD1; 1.9 µM on BRD4-BD1. In addition, on BRD2-BD2, the 2.1/2.2 was 11.

As to `CC(=O)N1c2ccc(-c3ccnn3C)cc2[C@H](NC(=O)OC(C)C)C[C@@H]1C` [compound 97], the EC50 is 40 µM on BRDT; 100 µM at BRD2-BD1; 2.5 µM on BRD2-BD2; 7.8 µM on BRD3-BD1; 20 µM on BRD4-BD1. For the same molecule, at BRD2-BD2, the 2.1/2.2 was 4.8.

Take `CC(=O)N1c2ccc(-c3cccc(NC(=O)C(C)C)c3)cc2[C@H](NC(=O)OC(C)C)C[C@@H]1C` [compound 98]: the EC50 on BRDT was 1.2 µM; on BRD2-BD1, 1.5 µM; on BRD2-BD2, 0.12 µM; on BRD3-BD1, 0.24 µM; at BRD4-BD1, 0.9 µM. Further, on BRD2-BD2, the 2.1/2.2 is 15.

`CC(=O)N1c2ccc(-c3cccc(NC(=O)C4CCCCC4)c3)cc2[C@H](NC(=O)OC(C)C)C[C@@H]1C` [compound 99]: the EC50 on BRDT worked out at 0.73 µM; on BRD2-BD1, 0.94 µM; on BRD2-BD2 it was 0.12 µM; on BRD3-BD1, 0.25 µM; on BRD4-BD1, 1 µM. Moreover, the 2.1/2.2 at BRD2-BD2 came to 12.

In the case of `CC(=O)N1c2ccc(-c3cccc(NCCC(C)C)c3)cc2[C@H](NC(=O)OC(C)C)C[C@@H]1C` [compound 100], the EC50 at BRDT was determined as 40 µM; on BRD2-BD1, 3.8 µM; at BRD2-BD2, 40 µM; on BRD3-BD1, 0.69 µM; on BRD4-BD1 it was 6 µM. Moreover, the 2.1/2.2 on BRD2-BD2 was determined as 7.3.

Regarding `CCCC(=O)Nc1cccc(-c2ccc3c(c2)[C@H](NC(=O)OC(C)C)C[C@H](C)N3C(C)=O)c1` [compound 101], the EC50 on BRDT came out at 1.3 µM; on BRD2-BD1, 1.1 µM; at BRD2-BD2 it was 0.11 µM; on BRD3-BD1, 0.34 µM; at BRD4-BD1, 0.95 µM. Besides, at BRD2-BD2, the 2.1/2.2 turned out to be 3.3.

Regarding `CC(=O)N1c2ccc(-c3cccc(NC(=O)C4CCC(C)CC4)c3)cc2[C@H](NC(=O)OC(C)C)C[C@@H]1C` (some centres unmarked) [compound 102], the EC50 was determined as 1.2 µM at BRDT; 4.8 µM at BRD2-BD1; 0.43 µM at BRD2-BD2; 0.53 µM at BRD3-BD1; 3.8 µM at BRD4-BD1. In addition, on BRD2-BD2, the 2.1/2.2 is 40.

As for `CC(=O)N1c2ccc(-c3cccc(NCc4ccc(C)cc4)c3)cc2[C@H](NC(=O)OC(C)C)C[C@@H]1C` [compound 103], the EC50 was 4.8 µM on BRDT; 3.7 µM at BRD2-BD1; 2.8 µM on BRD2-BD2; 0.89 µM at BRD3-BD1; 3.5 µM at BRD4-BD1. Further, the 2.1/2.2 at BRD2-BD2 is on record as 13.

For the molecule `CC(=O)N1c2ccc(-c3cccc(NC(=O)CC(C)C)c3)cc2[C@H](NC(=O)OC(C)C)C[C@@H]1C` [compound 104], the EC50 on BRDT was 1.6 µM; on BRD2-BD1, 1.6 µM; on BRD2-BD2, 0.29 µM; on BRD3-BD1, 0.41 µM; at BRD4-BD1 it was 0.94 µM. Besides, at BRD2-BD2, the 2.1/2.2 was found to be 7.8.

Regarding `CC(=O)N1c2ccc(-c3cccc(NCC4CCOC4)c3)cc2[C@H](NC(=O)OC(C)C)C[C@@H]1C` (some centres unmarked) [compound 105], the EC50 on BRDT is 1.1 µM; at BRD2-BD1, 0.4 µM; on BRD2-BD2, 0.03 µM; at BRD3-BD1, 0.1 µM; on BRD4-BD1, 0.2 µM. Moreover, the 2.1/2.2 at BRD2-BD2 stood at 0.095.

As to `CC(=O)N1c2ccc(-c3cccc(NCCC(C)(C)C)c3)cc2[C@H](NC(=O)OC(C)C)C[C@@H]1C` [compound 106], the EC50 at BRDT was 7 µM; on BRD2-BD1, 3.9 µM; at BRD2-BD2, 43 µM; on BRD3-BD1, 0.98 µM; at BRD4-BD1, 3.3 µM. In addition, on BRD2-BD2, the 2.1/2.2 is recorded as 10.

`CC(=O)N1c2ccc(-c3cccc(NC(=O)c4ccccc4)c3)cc2[C@H](NC(=O)OC(C)C)C[C@@H]1C` [compound 107]: the concentration giving a half-maximal response (EC50) was 0.49 µM on BRDT; 1.2 µM on BRD2-BD1; 0.16 µM at BRD2-BD2; 0.17 µM on BRD3-BD1; 0.81 µM at BRD4-BD1. Further, on BRD2-BD2, the 2.1/2.2 amounted to 11.

In the case of `CC(=O)N1c2ccc(-c3cccc(NCC4CC4)c3)cc2[C@H](NC(=O)OC(C)C)C[C@@H]1C` [compound 108], the EC50 at BRDT is 59 µM; on BRD2-BD1 it was 2.5 µM; at BRD2-BD2 it was 0.36 µM; at BRD3-BD1 it was 0.37 µM; at BRD4-BD1, 1.7 µM. Further, the 2.1/2.2 at BRD2-BD2 is 1.3.

In the case of `CC(=O)N1c2ccc(-c3cccc(NCCCc4ccccc4)c3)cc2[C@H](NC(=O)OC(C)C)C[C@@H]1C` [compound 109], the EC50 at BRDT is 11 µM; on BRD2-BD1, 11 µM; at BRD2-BD2 it was 0.28 µM; at BRD3-BD1 it was 0.67 µM; at BRD4-BD1, more than 11 µM. Moreover, the 2.1/2.2 on BRD2-BD2 was determined as 5.6.

Regarding `CC(=O)N1c2ccc(-c3cccc(NC(=O)Cc4ccccc4)c3)cc2[C@H](NC(=O)OC(C)C)C[C@@H]1C` [compound 110], the EC50 was found to be 1.6 µM at BRDT; 1.3 µM at BRD2-BD1; 0.12 µM at BRD2-BD2; 0.23 µM on BRD3-BD1; 1.1 µM on BRD4-BD1. Also, at BRD2-BD2, the 2.1/2.2 was found to be 14.

Regarding `CCCNc1cccc(-c2ccc3c(c2)[C@H](NC(=O)OC(C)C)C[C@H](C)N3C(C)=O)c1` [compound 111], the EC50 on BRDT amounted to 3.9 µM; at BRD2-BD1, 1.9 µM; on BRD2-BD2, 0.52 µM; at BRD3-BD1, 0.65 µM; on BRD4-BD1, 1.8 µM. Also, the 2.1/2.2 at BRD2-BD2 is 0.091.

As for `CC(=O)N1c2ccc(-c3cccc(NCC4CCCCC4)c3)cc2[C@H](NC(=O)OC(C)C)C[C@@H]1C` [compound 112], the EC50 at BRDT was found to be 4.4 µM; on BRD2-BD1, 7.2 µM; at BRD2-BD2 it was 2.5 µM; on BRD3-BD1 it was 2.1 µM; at BRD4-BD1, 5 µM. The 2.1/2.2 at BRD2-BD2 was 3.6.

As for `CC(=O)N1c2ccc(-c3cccc(NC(=O)C(C)(C)C)c3)cc2[C@H](NC(=O)OC(C)C)C[C@@H]1C` [compound 113], the EC50 at BRDT was found to be 7.5 µM; on BRD2-BD1 it was 2.2 µM; on BRD2-BD2, 0.11 µM; on BRD3-BD1, 0.41 µM; on BRD4-BD1 it was 1.4 µM. The 2.1/2.2 on BRD2-BD2 was 4.8.

For the molecule `CCCCNc1cccc(-c2ccc3c(c2)[C@H](NC(=O)OC(C)C)C[C@H](C)N3C(C)=O)c1` [compound 114], the EC50 on BRDT is 52 µM; on BRD2-BD1, 0.79 µM; at BRD2-BD2 it was 0.05 µM; on BRD3-BD1, 0.12 µM; on BRD4-BD1, 0.47 µM. Also, the 2.1/2.2 at BRD2-BD2 is listed as 9.1.

For the molecule `CCC(=O)Nc1cccc(-c2ccc3c(c2)[C@H](NC(=O)OC(C)C)C[C@H](C)N3C(C)=O)c1` [compound 115], the EC50 on BRDT turned out to be 0.33 µM; on BRD2-BD1, 0.37 µM; at BRD2-BD2, 0.04 µM; at BRD3-BD1, 0.09 µM; at BRD4-BD1, 0.16 µM. The 2.1/2.2 at BRD2-BD2 worked out at 7.2.

Turning to `CC(=O)N1c2ccc(-c3cccc(NC(=O)CCc4ccccc4)c3)cc2[C@H](NC(=O)OC(C)C)C[C@@H]1C` [compound 116], the EC50 came to 1.2 µM on BRDT; 1.2 µM at BRD2-BD1; 0.38 µM on BRD2-BD2; 0.28 µM on BRD3-BD1; 2.3 µM at BRD4-BD1. Also, at BRD2-BD2, the 2.1/2.2 is 7.0.

Regarding `CC(=O)N1c2ccc(-c3cccc(NCc4ccccc4)c3)cc2[C@H](NC(=O)OC(C)C)C[C@@H]1C` [compound 117], the EC50 worked out at 1.2 µM at BRDT; 0.6 µM on BRD2-BD1; 0.1 µM on BRD2-BD2; 0.23 µM at BRD3-BD1; 0.52 µM at BRD4-BD1. In addition, at BRD2-BD2, the 2.1/2.2 stood at 39.

Regarding `COC(=O)c1ccc(N[C@@H]2C[C@H](C)N(C(C)=O)c3ccc(-c4cccc(NC(C)=O)c4)cc32)c(C)c1` [compound 160], the EC50 at BRDT was 3.3 µM; on BRD2-BD1, 2.2 µM; on BRD3-BD1 it was 3 µM; on BRD4-BD1 it was more than 30 µM. The 2.1/2.2 at BRD2-BD2 came out at 44.

On to `COC(=O)c1ccc(N[C@@H]2C[C@H](C)N(C(C)=O)c3ccc(-c4cccc(NC(C)=O)c4)cc32)c(OC)c1` [compound 161], for which the EC50 at BRDT was 0.76 µM; on BRD2-BD1, 0.87 µM; on BRD2-BD2 it was 0.044 µM; at BRD3-BD1, more than 30 µM; at BRD4-BD1 it was more than 30 µM. In addition, the 2.1/2.2 at BRD2-BD2 stood at 20.

Regarding `CCCCOc1cccc(-c2ccc3c(c2)[C@H](Nc2ccc(C(=O)OC)cc2)C[C@H](C)N3C(C)=O)c1` [compound 164], the EC50 came out at 32 µM at BRDT; 22 µM on BRD2-BD1; 0.22 µM at BRD2-BD2; 30 µM on BRD3-BD1; 57 µM at BRD4-BD1. Further, on BRD2-BD2, the 2.1/2.2 worked out at 100.

Consider `COC(=O)c1ccc(N[C@@H]2C[C@H](C)N(C(C)=O)c3ccc(-c4cccc(OCCN5CCOCC5)c4)cc32)cc1` [compound 166], for which the EC50 at BRDT amounted to 0.28 µM; on BRD2-BD1, 0.13 µM; on BRD2-BD2, 0.02 µM; at BRD3-BD1, 0.15 µM; on BRD4-BD1, 0.64 µM. For the same molecule, the 2.1/2.2 at BRD2-BD2 turned out to be 6.5.
